ChEMBL document CHEMBL3751669, “Structural refinement of pyrazolo[4,3-d]pyrimidine derivatives to obtain highly potent and selective antagonists for the human A3 adenosine receptor” (Eur J Med Chem, 2016)

Key:
Adenosine receptor A3 [1] = target: T1, Adenosine receptor A3 (Homo sapiens, UniProt P0DMS8); assay: Displacement of [125I]AB-MECA at human […] receptor expressed in CHO cell membrane after 60 mins by scintillation counting method; format: cell membranes
T1 sequence (P0DMS8 whole entry): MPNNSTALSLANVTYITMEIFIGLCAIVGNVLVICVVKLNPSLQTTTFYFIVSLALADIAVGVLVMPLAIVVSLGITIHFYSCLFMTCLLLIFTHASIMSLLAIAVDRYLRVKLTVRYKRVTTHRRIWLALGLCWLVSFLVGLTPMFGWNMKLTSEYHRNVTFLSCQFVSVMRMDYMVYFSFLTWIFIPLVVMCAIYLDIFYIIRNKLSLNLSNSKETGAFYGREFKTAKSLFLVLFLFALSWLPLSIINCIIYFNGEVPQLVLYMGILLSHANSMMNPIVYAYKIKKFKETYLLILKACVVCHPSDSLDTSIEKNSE

Adenosine receptor A2a [2] = target: T2, Adenosine receptor A2a (Homo sapiens, UniProt P29274); assay: Displacement of [3H]ZM241385 at human A2A receptor expressed in CHO cell membrane at 1 uM after 60 mins by scintillation counting method; format: cell membranes
T2 sequence (P29274 whole entry): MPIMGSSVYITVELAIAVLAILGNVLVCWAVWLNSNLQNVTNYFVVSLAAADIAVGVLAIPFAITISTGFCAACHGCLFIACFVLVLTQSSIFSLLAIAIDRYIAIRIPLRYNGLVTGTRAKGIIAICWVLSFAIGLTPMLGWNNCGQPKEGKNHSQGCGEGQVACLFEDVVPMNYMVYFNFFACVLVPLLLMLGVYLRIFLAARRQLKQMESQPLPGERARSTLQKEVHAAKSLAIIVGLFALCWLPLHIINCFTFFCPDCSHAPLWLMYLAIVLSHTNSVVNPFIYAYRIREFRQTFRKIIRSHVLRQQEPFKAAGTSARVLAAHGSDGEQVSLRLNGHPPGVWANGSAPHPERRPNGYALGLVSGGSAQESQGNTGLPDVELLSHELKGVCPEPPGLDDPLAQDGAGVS

[3] = target: T3, Adenosine receptor A2b (Homo sapiens) (UniProt P29275); assay: Antagonist activity at human A2B receptor expressed in CHO cells assessed as inhibition of NECA-stimulated cAMP production at 1 uM by scintillation counting method; format: functional, cell-based
T3 sequence (whole entry): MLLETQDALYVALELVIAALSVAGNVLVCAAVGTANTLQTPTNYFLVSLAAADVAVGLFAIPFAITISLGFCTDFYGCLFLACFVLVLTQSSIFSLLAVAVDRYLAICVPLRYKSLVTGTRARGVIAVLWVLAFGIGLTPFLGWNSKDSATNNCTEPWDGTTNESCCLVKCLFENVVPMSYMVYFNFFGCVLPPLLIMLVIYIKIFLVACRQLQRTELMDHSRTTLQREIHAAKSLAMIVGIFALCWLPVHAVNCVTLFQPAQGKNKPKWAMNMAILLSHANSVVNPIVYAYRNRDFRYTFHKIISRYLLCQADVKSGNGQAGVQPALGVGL

[4] = target: T4, Adenosine receptor A1 (Homo sapiens) (UniProt P30542); assay: Displacement of [3H]DPCPX at human A1 receptor expressed in CHO cell membrane at 1 uM after 120 mins by scintillation counting method; format: cell membranes
T4 sequence (whole entry): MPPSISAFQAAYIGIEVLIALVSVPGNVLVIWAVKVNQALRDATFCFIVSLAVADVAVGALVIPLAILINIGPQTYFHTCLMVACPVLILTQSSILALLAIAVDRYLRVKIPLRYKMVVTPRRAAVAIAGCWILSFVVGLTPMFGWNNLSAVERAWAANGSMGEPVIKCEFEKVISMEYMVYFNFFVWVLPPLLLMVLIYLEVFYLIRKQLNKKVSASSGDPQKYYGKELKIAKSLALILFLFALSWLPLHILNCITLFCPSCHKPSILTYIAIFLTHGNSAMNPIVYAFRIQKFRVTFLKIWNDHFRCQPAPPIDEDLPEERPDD

Adenosine receptor A3 [5] = target: T1, Adenosine receptor A3; assay: Antagonist activity at human A3 receptor expressed in CHO cells assessed as inhibition of Cl-IB-MECA-induced cAMP production by scintillation counting method; format: functional, cell-based
Adenosine receptor A3 [6] = target: T5, Adenosine receptor A3 (Rattus norvegicus, UniProt P28647); assay: Displacement of [125I]AB-MECA at rat A3 receptor expressed in HEK293 cells after 60 mins by scintillation counting method; format: cell-based
T5 sequence (P28647 whole entry): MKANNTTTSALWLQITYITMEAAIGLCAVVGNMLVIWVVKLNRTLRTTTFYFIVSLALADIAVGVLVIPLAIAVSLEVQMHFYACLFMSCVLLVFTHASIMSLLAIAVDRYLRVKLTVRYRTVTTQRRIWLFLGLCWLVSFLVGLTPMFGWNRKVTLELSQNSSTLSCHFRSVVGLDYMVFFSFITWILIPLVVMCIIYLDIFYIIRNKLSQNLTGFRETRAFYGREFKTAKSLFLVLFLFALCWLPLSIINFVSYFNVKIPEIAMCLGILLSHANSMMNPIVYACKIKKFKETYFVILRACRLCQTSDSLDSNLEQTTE

[7] = target: T6, Adenosine receptor A3 (Homo sapiens) (UniProt P0DMS8); assay: Displacement of [125I]AB-MECA at human […] receptor expressed in CHO cell membrane at 1 uM after 60 mins by scintillation counting method; format: cell membranes
T6 sequence (whole entry): T1 sequence (P0DMS8 whole entry)

Adenosine receptor A2a [8] = target: T2, Adenosine receptor A2a; assay: Displacement of [3H]ZM241385 at human A2A receptor expressed in CHO cell membrane after 60 mins by scintillation counting method; format: cell membranes
Adenosine receptor A1 = target: T7, Adenosine receptor A1 (Homo sapiens, UniProt P30542); assay: Displacement of [3H]DPCPX at human A1 receptor expressed in CHO cell membrane after 120 mins by scintillation counting method; format: cell membranes
T7 sequence (P30542 whole entry): T4 sequence (whole entry)

Structure (SMILES)	Ki (Adenosine receptor A3 [1])	inhibition (Adenosine receptor A2a [2])	inhibition [3]	inhibition [4]	IC50 (Adenosine receptor A3 [5])	Ki (Adenosine receptor A3 [6])	inhibition [7]	Ki (Adenosine receptor A2a [8])	Ki (Adenosine receptor A1)
COc1ccc(-n2cc3nc(-c4cccs4)[nH]c(=O)c3n2)cc1	247 nM	1%	1%	5%					
Cc1nc2cn(C)nc2c(=O)[nH]1		1%	1%	1%			1%		
Cn1cc2nc(-c3ccccc3)nc(N)c2n1		1%	1%	31%			1%		
COc1ccc(-c2nc3cn(C)nc3c(=O)[nH]2)cc1		1%	1%	2%			1%		
O=c1[nH]c(-c2ccccc2)nc2cn(-c3ccccc3)nc12			5%						
COc1ccc(C(=O)Nc2nc(-c3cccs3)nc3cn(-c4ccccc4)nc23)cc1	0.027 nM	1%	1%	1%	0.11 nM	> 10000 nM			
Cc1nc2cn(-c3ccccc3F)nc2c(=O)[nH]1	225 nM	1%	1%	1%					
O=c1[nH]c(-c2cccs2)nc2cn(-c3ccccc3)nc12	413 nM	14%	1%	6%					
O=C(Cc1ccccc1)Nc1nc(-c2cccs2)nc2cn(-c3ccccc3)nc12	3.53 nM	1%	1%	32%	8.45 nM				
Nc1nc(-c2ccc(O)cc2)nc2cn(-c3ccccc3)nc12	432 nM	33%	7%	31%					
O=c1[nH]c(-c2ccco2)nc2cn(-c3ccccc3)nc12		12%	1%	1%			30%		
Cc1nc(N)c2nn(-c3ccccc3)nc2n1		6%	1%				1%		213 nM
COc1ccc(-c2nc(N)c3nn(-c4ccccc4)cc3n2)cc1	33 nM	1%	2%	33%					
O=c1[nH]c(-c2ccccc2)nc2cn(Cc3ccccc3)nc12	130 nM	1%	1%	6%					
Cc1nc2cn(Cc3ccccc3)nc2c(=O)[nH]1	485 nM	1%	1%	6%					
COc1ccc(C(=O)Nc2nc(-c3ccc(OC)cc3)nc3cn(-c4ccccc4)nc23)cc1	1.31 nM	1%	1%	3%	4.27 nM	> 10000 nM			
COc1ccc(-n2cc3nc(-c4cccs4)nc(N)c3n2)cc1	78 nM	35%	31%	28%					

The remaining lines, values ahead:

Ki (Adenosine receptor A3 [1])	inhibition (Adenosine receptor A2a [2])	inhibition [3]	inhibition [4]	IC50 (Adenosine receptor A3 [5])	Ki (Adenosine receptor A3 [6])	inhibition [7]	Ki (Adenosine receptor A2a [8])	Ki (Adenosine receptor A1)	Structure (SMILES)
202 nM	9%	1%	7%						O=C(Cc1ccccc1)Nc1nc(-c2ccccc2)nc2cn(Cc3ccccc3)nc12
2.12 nM	1%	1%	1%	5.32 nM	> 10000 nM				O=C(Nc1nc(-c2cccs2)nc2cn(-c3ccccc3)nc12)c1ccccc1
54 nM		1%					300 nM	250 nM	Nc1nc(-c2ccccc2)nc2cn(Cc3ccccc3)nc12
	3%	1%	38%			1%			Nc1nc(-c2ccccc2)nc2nn(-c3ccccc3)nc12
9.7 nM		27%					115 nM	52 nM	Nc1nc(-c2cccs2)nc2cn(-c3ccccc3)nc12
1.82 nM	2%	1%		4.37 nM				687 nM	O=C(c1ccco1)N(C(=O)c1ccco1)c1nc(-c2cccs2)nc2cn(-c3ccccc3)nc12
6.42 nM	1%	1%	2%	26 nM	> 10000 nM				COc1ccc(-c2nc(NC(=O)c3ccccc3)c3nn(-c4ccccc4)cc3n2)cc1
	1%	3%	13%			4%			Nc1nc(-c2ccc(Cl)cc2)nc2cn(-c3ccccc3)nc12
17 nM	3%	1%	1%						COc1ccc(-c2nc(N)c3nn(-c4ccc(OC)cc4)cc3n2)cc1
321 nM	14%	1%	32%						Cc1nc2nn(-c3ccccc3)nc2c(=O)[nH]1
	1%	1%	1%			20%			Cn1cc2nc(-c3ccccc3)[nH]c(=O)c2n1
9.54 nM	1%	1%	20%	37 nM	> 10000 nM				O=C(Nc1nc(-c2cccs2)nc2cn(-c3ccccc3)nc12)c1ccncc1
223 nM	24%	2%	36%						O=C(Nc1nc(-c2ccccc2)nc2cn(Cc3ccccc3)nc12)c1ccccc1
	11%	1%	8%			23%			O=c1[nH]c(-c2ccccc2)nc2nn(-c3ccccc3)nc12
2.43 nM	7%	1%		5.59 nM				466 nM	O=C(Nc1nc(-c2cccs2)nc2cn(-c3ccccc3)nc12)c1cccs1
5.87 nM	1%	1%	18%	13 nM					O=C(Nc1nc(-c2ccccc2)nc2cn(-c3ccccc3)nc12)c1cccs1
2.34 nM	21%	1%		5.47 nM				552 nM	O=C(Nc1nc(-c2cccs2)nc2cn(-c3ccccc3)nc12)c1ccco1
868 nM	15%	1%	1%						Cc1ccc(-c2nc3cn(-c4ccccc4)nc3c(=O)[nH]2)o1
0.41 nM	3%	1%		1.01 nM				764 nM	O=C(Nc1nc(-c2cccs2)nc2cn(-c3ccccc3)nc12)c1cccnc1
		3%							Cc1nc2cn(-c3ccccc3)nc2c(=O)[nH]1
9.83 nM	1%	1%	3%	39 nM	> 10000 nM				COc1ccc(-c2nc(NC(=O)c3ccncc3)c3nn(-c4ccccc4)cc3n2)cc1
250 nM	35%	1%						400 nM	Nc1nc(Cc2cccs2)nc2cn(-c3ccccc3)nc12
